Reference: patent publication US20220313698A1, “MODULATORS OF CYSTIC FIBROSIS TRANSMEMBRANE CONDUCTANCE REGULATOR” (Vertex Pharmaceuticals Incorporated, priority 2019, published 2022)

Molecular target: CFTR-mediated chloride transport (Homo sapiens, UniProt P13569)
Test: Corrector Assay A - membrane potential dye assay (enteroid cells)
Conditions: for Corrector Assay A % activity: % of chloride transport of triple combination control (1 μM (14S)-dispiro macrocycle + 3 μM tezacaftor + 300 nM ivacaftor); for EC50: read-out: Corrector Assay A EC50, human intestinal enteroid cells, 18-24 h incubation, acute 10 μM forskolin + 300 nM ivacaftor

**Q.** `CN1CCC(C2CC[C@@H]3CN(c4nc(C(C)(C)C)ccc4C(=O)NS(=O)(=O)c4cccc(n4)N2)C(C)(C)C3)CC1` (single isomer, unassigned) [Compound 240] was tested. Which “Corrector Assay A % activity” value did it give?
**A.** The value was “+++ (+++ is >60%)”.

**Q.** What about the EC50 of the same molecule?
**A.** Its EC50 is 1000 to 3000 nM.

**Q.** What does the source list for `CN1CCC(C2CC[C@@H]3CN(c4nc(C(C)(C)C)ccc4C(=O)NS(=O)(=O)c4cccc(n4)N2)C(C)(C)C3)CC1` (single isomer, unassigned) [Compound 241]?
**A.** Corrector Assay A % activity: ++ (++ is 30-60%); EC50: < 1000 nM

**Q.** For `Cc1cccc(C)c1[C@H]1CC[C@@H]2CN(c3nc(C(C)(C)C)ccc3C(=O)NS(=O)(=O)c3cccc(n3)N1)C(C)(C)C2` (single isomer, unassigned) [Compound 242], which “Corrector Assay A % activity” value is on record?
**A.** The value was “+ (+ is <30%)”.

**Q.** `Cc1cccc(C)c1[C@@H]1CC[C@@H]2CN(c3nc(C(C)(C)C)ccc3C(=O)NS(=O)(=O)c3cccc(n3)N1)C(C)(C)C2` (single isomer, unassigned) [Compound 243] was tested. Which “Corrector Assay A % activity” value did it give?
**A.** The value was “+++ (+++ is >60%)”.

**Q.** What about the EC50 of the same molecule?
**A.** Its EC50 is under 1000 nM.

**Q.** What does the source list for `CC(C)(C)c1ccc2c(n1)N1C[C@@H](CCC(C(C)(C)C)Nc3cccc(n3)S(=O)(=O)NC2=O)CC1(C)C` (single isomer, unassigned) [Compound 244]?
**A.** Corrector Assay A % activity: +++ (+++ is >60%); EC50: < 1000 nM

**Q.** With `CC(C)(C)c1ccc2c(n1)N1C[C@@H](CCC(C(C)(C)C)Nc3cccc(n3)S(=O)(=O)NC2=O)CC1(C)C` (single isomer, unassigned) [Compound 245] as the molecule, how does the “Corrector Assay A % activity” value read?
**A.** Its value is “++ (++ is 30-60%)”.

**Q.** And the EC50?
**A.** The EC50 was under 1000 nM.

**Q.** How did the “Corrector Assay A % activity” value turn out when `CC(C)(C)c1ccc2c(n1)N1C[C@@H](CCC(C3CCNCC3)Nc3cccc(n3)S(=O)(=O)NC2=O)CC1(C)C` (single isomer, unassigned) [Compound 248] was run?
**A.** The value was “++ (++ is 30-60%)”.

**Q.** And the EC50?
**A.** Its EC50 is over 3000 nM.

**Q.** `CC(C)(C)c1ccc2c(n1)N1C[C@@H](CCC(C3CCNCC3)Nc3cccc(n3)S(=O)(=O)NC2=O)CC1(C)C` (single isomer, unassigned) [Compound 249] was tested. Which “Corrector Assay A % activity” value did it give?
**A.** Its value is “++ (++ is 30-60%)”.

**Q.** And the EC50?
**A.** Its EC50 is over 3000 nM.

**Q.** Which results are given for `CC(C)(C)c1ccc2c(n1)N1CC(CCCNc3cc(O)cc(n3)S(=O)(=O)NC2=O)CC1(C)C` (single isomer, unassigned) [Compound 250, 8-tert-butyl-21-hydroxy-12,12-dimethyl-2λ^6-thia-3,9,11,18,23-pentaazatetracyclo[17.3.1.111,14.05,10]tetracosa-1(23),5,7,9,19,21-hexaene-2,2,4-trione]?
**A.** Corrector Assay A % activity: ++ (++ is 30-60%); EC50: < 1000 nM

**Q.** For `CC(C)(C)c1ccc2c(n1)N1CC(CCCNc3cc(O)cc(n3)S(=O)(=O)NC2=O)CC1(C)C` (single isomer, unassigned) [Compound 251, 8-tert-butyl-21-hydroxy-12,12-dimethyl-2λ^6-thia-3,9,11,18,23-pentaazatetracyclo[17.3.1.111,14.05,10]tetracosa-1(23),5,7,9,19,21-hexaene-2,2,4-trione], which “Corrector Assay A % activity” value is on record?
**A.** The value was “+ (+ is <30%)”.

**Q.** With `CC(C)(C)c1ccc2c(n1)N1CC(CCCNc3cncc(n3)S(=O)(=O)NC2=O)CC1(C)C` (single isomer, unassigned) [Compound 252, 8-tert-butyl-12,12-dimethyl-2λ^6-thia-3,9,11,18,21,23-hexaazatetracyclo[17.3.1.111,14.05,10]tetracosa-1(22),5,7,9,19(23),20-hexaene-2,2,4-trione] as the molecule, how does the “Corrector Assay A % activity” value read?
**A.** The value was “++ (++ is 30-60%)”.

**Q.** And the EC50?
**A.** Its EC50 is under 1000 nM.

**Q.** How did the “Corrector Assay A % activity” value turn out when `CC(C)(C)c1ccc2c(n1)N1CC(CCCNc3cncc(n3)S(=O)(=O)NC2=O)CC1(C)C` (single isomer, unassigned) [Compound 253, 8-tert-Butyl-12,12-dimethyl-2λ^6-thia-3,9,11,18,21,23-hexaazatetracyclo[17.3.1.111,14.05,10]tetracosa-1(22),5,7,9,19(23),20-hexaene-2,2,4-trione] was run?
**A.** The value was “+ (+ is <30%)”.

**Q.** And the EC50?
**A.** The EC50 was over 3000 nM.

**Q.** `CC(C)(C)c1ccc2c(n1)N1C[C@@H](CCC(C3CCN(C(=O)OCc4ccccc4)CC3)Nc3cccc(n3)S(=O)(=O)NC2=O)CC1(C)C` (single isomer, unassigned) [Compound 254] was tested. Which “Corrector Assay A % activity” value did it give?
**A.** Its value is “+ (+ is <30%)”.

**Q.** What about the EC50 of the same molecule?
**A.** Its EC50 is under 1000 nM.

**Q.** For `CC(C)(C)c1ccc2c(n1)N1C[C@@H](CCC(C3CCN(C(=O)OCc4ccccc4)CC3)Nc3cccc(n3)S(=O)(=O)NC2=O)CC1(C)C` (single isomer, unassigned) [Compound 255], which “Corrector Assay A % activity” value is on record?
**A.** Its value is “+++ (+++ is >60%)”.

**Q.** What about the EC50 of the same molecule?
**A.** The EC50 was under 1000 nM.

**Q.** Which “Corrector Assay A % activity” value does the source give for `CC(C)(C)c1ccc2c(n1)N1CC(CCCOc3cccc(c3)S(=O)(=O)NC2=O)CC1(C)C` (single isomer, unassigned) [Compound 256, 8-tert-butyl-12,12-dimethyl-18-oxa-2λ^6-thia-3,9,11-triazatetracyclo[17.3.1.111,14.05,10]tetracosa-1(22),5,7,9,19(23),20-hexaene-2,2,4-trione] here?
**A.** The value was “++ (++ is 30-60%)”.

**Q.** What about the EC50 of the same molecule?
**A.** Its EC50 is under 1000 nM.

**Q.** With `CC(C)(C)c1ccc2c(n1)N1CC(CCCOc3cccc(c3)S(=O)(=O)NC2=O)CC1(C)C` (single isomer, unassigned) [Compound 257, 8-tert-Butyl-12,12-dimethyl-18-oxa-2λ^6-thia-3,9,11-triazatetracyclo[17.3.1.111,14.05,10]tetracosa-1(22),5,7,9,19(23),20-hexaene-2,2,4-trione] as the molecule, how does the “Corrector Assay A % activity” value read?
**A.** The value was “+ (+ is <30%)”.

**Q.** `CC(C)(C)c1ccc2c(n1)N1CC(CC1(C)C)OCCNc1cccc(n1)S(=O)(=O)NC2=O` (single isomer, unassigned) [Compound 258, 8-tert-butyl-12,12-dimethyl-15-oxa-2λ^6-thia-3,9,11,18,23-pentaazatetracyclo[17.3.1.111,14.05,10]tetracosa-1(22),5(10),6,8,19(23),20-hexaene-2,2,4-trione] was tested. Which “Corrector Assay A % activity” value did it give?
**A.** Its value is “+ (+ is <30%)”.

**Q.** `CC(C)(C)c1ccc2c(n1)N1CC(CC1(C)C)OCCNc1cccc(n1)S(=O)(=O)NC2=O` (single isomer, unassigned) [Compound 259, 8-tert-Butyl-12,12-dimethyl-15-oxa-2λ^6-thia-3,9,11,18,23-pentaazatetracyclo[17.3.1.111,14.05,10]tetracosa-1(22),5(10),6,8,19(23),20-hexaene-2,2,4-trione] was tested. Which “Corrector Assay A % activity” value did it give?
**A.** Its value is “++ (++ is 30-60%)”.

**Q.** What about the EC50 of the same molecule?
**A.** The EC50 was under 1000 nM.

**Q.** Which “Corrector Assay A % activity” value does the source give for `CN1c2cccc(n2)S(=O)(=O)NC(=O)c2ccc(C(C)(C)C)nc2N2C[C@@H](CCC1c1ccccc1)CC2(C)C` (single isomer, unassigned) [Compound 261] here?
**A.** Its value is “+ (+ is <30%)”.

**Q.** And the EC50?
**A.** The EC50 was under 1000 nM.

**Q.** For `CC1(C)CCCc2cc3c(nc21)N1C[C@@H](CCC(c2ccccn2)Nc2cccc(n2)S(=O)(=O)NC3=O)CC1(C)C` (single isomer, unassigned) [Compound 263], which “Corrector Assay A % activity” value is on record?
**A.** The value was “+++ (+++ is >60%)”.

**Q.** What about the EC50 of the same molecule?
**A.** Its EC50 is under 1000 nM.

**Q.** With `CC1(C)CCCc2cc3c(nc21)N1C[C@@H](CCC(c2ccccn2)Nc2cccc(n2)S(=O)(=O)NC3=O)CC1(C)C` (single isomer, unassigned) [Compound 264] as the molecule, how does the “Corrector Assay A % activity” value read?
**A.** Its value is “++ (++ is 30-60%)”.

**Q.** And the EC50?
**A.** The EC50 was under 1000 nM.

**Q.** `CC(C)(C)c1ccc2c(n1)N1CC(CCN(c3ccccc3)C(=O)c3cccc(c3)S(=O)(=O)NC2=O)CC1(C)C` (single isomer, unassigned) [Compound 266, 8-tert-butyl-12,12-dimethyl-17-phenyl-2λ^6-thia-3,9,11,17-tetraazatetracyclo[17.3.1.111,14.05,10]tetracosa-1(22),5,7,9,19(23),20-hexaene-2,2,4,18-tetrone] was tested. Which “Corrector Assay A % activity” value did it give?
**A.** The value was “+ (+ is <30%)”.

**Q.** `CC(C)(C)c1ccc2c(n1)N1CC(CCN(c3ccccc3)C(=O)c3cccc(c3)S(=O)(=O)NC2=O)CC1(C)C` (single isomer, unassigned) [Compound 267, 8-tert-Butyl-12,12-dimethyl-17-phenyl-2λ^6-thia-3,9,11,17-tetraazatetracyclo[17.3.1.111,14.05,10]tetracosa-1(22),5,7,9,19(23),20-hexaene-2,2,4,18-tetrone] was tested. Which “Corrector Assay A % activity” value did it give?
**A.** The value was “+ (+ is <30%)”.

**Q.** And the EC50?
**A.** Its EC50 is over 3000 nM.

**Q.** `CC(C)(C)c1ccc2c(n1)N1C[C@@H](CC[C@@H](C3CCOCC3)Nc3cccc(n3)S(=O)(=O)NC2=O)CC1(C)C` (single isomer, unassigned) [Compound 268] was tested. Which “Corrector Assay A % activity” value did it give?
**A.** The value was “+++ (+++ is >60%)”.

**Q.** What about the EC50 of the same molecule?
**A.** Its EC50 is under 1000 nM.

**Q.** `CC(C)(C)c1ccc2c(n1)N1C[C@@H](CC[C@@H](C3CCOCC3)Nc3cccc(n3)S(=O)(=O)NC2=O)CC1(C)C` (single isomer, unassigned) [Compound 269] was tested. Which “Corrector Assay A % activity” value did it give?
**A.** The value was “++ (++ is 30-60%)”.

**Q.** And the EC50?
**A.** Its EC50 is under 1000 nM.

**Q.** How did the “Corrector Assay A % activity” value turn out when `CC(C)CN1c2cccc(n2)S(=O)(=O)NC(=O)c2ccc(C(C)(C)C)nc2N2C[C@@H](CCC1c1ccccc1)CC2(C)C` (single isomer, unassigned) [Compound 270] was run?
**A.** The value was “+ (+ is <30%)”.

**Q.** For `CC(C)CN1c2cccc(n2)S(=O)(=O)NC(=O)c2ccc(C(C)(C)C)nc2N2C[C@@H](CC[C@H]1c1ccccc1)CC2(C)C` (single isomer, unassigned) [Compound 271], which “Corrector Assay A % activity” value is on record?
**A.** Its value is “+ (+ is <30%)”.

**Q.** `CC1CCC2CN(c3nc(C(C)(C)C)ccc3C(=O)NS(=O)(=O)c3ccn1n3)C(C)(C)C2` (single isomer, unassigned) [Compound 272] was tested. Which “Corrector Assay A % activity” value did it give?
**A.** Its value is “+++ (+++ is >60%)”.

**Q.** What about the EC50 of the same molecule?
**A.** Its EC50 is under 1000 nM.

**Q.** For `CC1CCC2CN(c3nc(C(C)(C)C)ccc3C(=O)NS(=O)(=O)c3ccn1n3)C(C)(C)C2` (single isomer, unassigned) [Compound 273], which “Corrector Assay A % activity” value is on record?
**A.** The value was “++ (++ is 30-60%)”.

**Q.** What about the EC50 of the same molecule?
**A.** Its EC50 is 1000 to 3000 nM.

**Q.** Which results are given for `CC(C)(C)c1ccc2c(n1)N1C[C@@H](CCC(c3ccccc3)n3ccc(n3)S(=O)(=O)NC2=O)CC1(C)C` (single isomer, unassigned) [Compound 274]?
**A.** Corrector Assay A % activity: ++ (++ is 30-60%); EC50: < 1000 nM

**Q.** Which results are given for `CC(C)(C)c1ccc2c(n1)N1C[C@@H](CCC(c3ccccc3)n3ccc(n3)S(=O)(=O)NC2=O)CC1(C)C` (single isomer, unassigned) [Compound 275]?
**A.** Corrector Assay A % activity: ++ (++ is 30-60%); EC50: < 1000 nM

**Q.** For `COC[C@@H]1CC[C@@H]2CN(c3nc(C(C)(C)C)ccc3C(=O)NS(=O)(=O)c3cccc(n3)N1)C(C)(C)C2` (single isomer, unassigned) [Compound 276], which “Corrector Assay A % activity” value is on record?
**A.** The value was “++ (++ is 30-60%)”.

**Q.** What about the EC50 of the same molecule?
**A.** The EC50 was under 1000 nM.
